Laboratory results published in article PMC7923466, “Mining of two novel aldehyde dehydrogenases (DHY-SC-VUT5 and DHY-G-VUT7) from metagenome of hydrocarbon contaminated soils” (BMC Biotechnology, 2021).

What was measured:
DHY-G-VUT7 = system: T1, DHY-G-VUT7; test: NADH formation at […] nm, Michaelis-Menten fit (GraphPad Prism); assay type: biochemical, metagenome: hydrocarbon contaminated soil; conditions: 50 mM NAD+, 50 mM Tris-HCl pH 8.0, 30 °C; hexanal 25-200 mM
T1 construct: codon-optimised synthetic gene in pET-30a(+) (NdeI/HindIII), C-terminal 6xHis kept, E. coli BL21(DE3), Ni-NTA purified, ~67 kDa band

DHY-SC-VUT5 = system: T2, DHY-SC-VUT5; test: as above; assay type: biochemical, uncultured bacterium; conditions: 50 mM NAD+, 50 mM Tris-HCl pH 8.0, 30 °C; hexanal 25-200 mM
T2 construct: codon-optimised synthetic gene in pET-30a(+) (NdeI/HindIII), C-terminal 6xHis kept, E. coli BL21(DE3), Ni-NTA purified, ~51 kDa band

Km (DHY-G-VUT7): 2.83 mM | Km (DHY-SC-VUT5): 13.8 mM
SMILES: CCCCCC=O [hexanal]
